Data on 15 molecules can be found in US7037647B1, “Prostate-specific membrane antigen and uses thereof” (Sloan-Kettering Institute for Cancer Research, priority 1995, dated 2006).

Read-outs that look alike come from different tables or passages of the source.

Experiment [1] has as its system PSM mRNA expression in LNCaP cells. Description: Steroid modulation of PSM mRNA expression, ribonuclease protection assay. It is filed as cell-based, human. Particulars: 24 hours; for downregulation of PSM mRNA expression: charcoal-extracted serum media, steroid 2 nM; for effect on PSM mRNA expression (in words): physiologic doses of steroids. An excerpt:
A portion of the PSM cDNA was subcloned into the plasmid vector pSPORT 1 (Gibco-BRL) and the orientation of the cDNA insert relative to the flanking T7 and SP6 RNA polymerase promoters was verified by restriction analysis. Linearization of this plasmid upstream of the PSM insert followed by transcription with SP6 RNA polymerase yields a 400 nucleotide antisense RNA probe, of which 350 nucleotides should be protected from RNase digestion by PSM RNA. This probe was used in FIG. 20. Plasmid IN-20, containing a 1 kb partial PSM cDNA in the plasmid pCR II (Invitrogen) was also used for riboprobe synthesis. IN-20 linearized with Xmn I (Gibco-BRL) yields a 298 nucleotide anti-sense RNA probe when transcribed using SP6 RNA polymerase, of which 260 nucleotides should be protected from RNase digestion by PSM mRNA. This probe was used in FIGS. 21 and 22. Probes were synthesized using SP6 RNA polymerase (Gibco-BRL), rNTPs (Gibco-BRL), RNAsin (Promega), and ^32P-rCTP (NEN, Wilmington, Del.) according to published protocols (13). Probes were purified over NENSORB 20 purification columns (NEN) and approximately 1 million cpm of purified, radiolabeled PSM probe was mixed with 10μ of each RNA and hybridized overnight at 45 C using buffers and reagents from the RPA II kit (Ambion, Austin, Tex.). Samples were processed as per manufacturer's instructions and analyzed on 5% polyacrilamide/7M urea denaturing gels using Seq ACRYL reagents (ISS, Natick, Mass.). Gels were pre-heated to 55 C and run for approximately 1-2 hours at 25 watts. Gels were then fixed for 30 minutes in 10% methanol/10% acetic acid, dried onto Whatman 3MM paper at 80 C in a BioRad vacuum dryer and autoradiographed overnight with Hyperfilm MP (Amersham). Quantitation of PSM expression was determined by using a scanning laser densitometer (LKB, Piscataway, N.J.).
LNCaP cells (2 million) were plated onto T-75 flasks in RPMI 1640 media supplemented with 5% fetal calf serum and grown 24 hours until approximately 30-40% confluent. Flasks were then washed several times with phophate-buffered saline and RPMI medium supplemented with 5% charcoal-extracted serum was added. Cells were then grown for another 24 hours, at which time dihydrotesterone, testosterone, estradiol, progesterone, and dexamethasone (Steraloids Inc., Wilton, N.H.) were added at a final concentration of 2 nM. Cells were grown for another 24 hours and RNA was then harvested as previously described and PSM expression analyzed by ribonuclease protection analysis.

For experiment [2], the target named is T1, PSM enzyme (folate hydrolase) (Homo sapiens, UniProt Q04609).
T1 construct: membrane preparations from androgen-sensitive human prostatic carcinoma cells (LNCaP); endogenous in cells; host or cells: LNCaP cell membranes
It is filed as biochemical. Particulars: for hydrolysis as substrate by the PSM enzyme (in words): LNCaP membrane preparations. From the text:
Using capillary electrophoresisis pteroyl poly-gamma-glutamate carboxypeptidase (hydrolase) activity was investigated in membrane preparations from androgen-sensitive human prostatic carcinoma cells (LNCaP).

Experiment [3] has as its target T2, Prostate specific membrane antigen (Homo sapiens, UniProt Q04609).
T2 construct: Prostate specific membrane antigen was immuno precipitated from the prostate cancer cell line LNCaP; endogenous in cells; host or cells: LNCaP (immunoprecipitate)
Description: Inhibition of neuropeptidase activity (NAAG as substrate) of immunoprecipitated PSM. It is filed as biochemical. An excerpt:
PSM may have activities both as a folate hydrolase and a carboxyneuropeptidase. For the cytotoxic drug methotrexate to be a tumor toxin it has to get into the cell and be polygammaglutamated which to be active, because polyglutamated forms serve as the enzyme substrates and because polyglutamated forms or toxins are also retained by the cell. Folate hydrolase is a competing reaction and deglutamates methotrexate which then can diffuse back out of the cell. Cells that overexpose folate hydrolase activity are resistant to methotrexate. Prostate cancer has always been absolutely refractory to methotrexate therapy and this may explain why, since the prostate and prostate cancer has a lot of folate hydolase activity. However, based on this activity, prodrugs may be generated which would be activate at the site of the tumor such as N-phosphonoacetyl-1-aspartate-glutamate.
Folate is necessary for the support of cell function and growth and thus this enzyme may serve to modulate folate access to the prostate and prostate tumor. The other area where PSM is expressed is in the small intestine. It turns out that a key enzyme of the small intestine that is involved in folate uptake acts as a gamma-carboxypeptidase in sequentially proteolytically removing the terminal gammaglutaminyl group from folate. […]

In experiment [4] the test system is PSM mRNA expression in LNCaP cells. Description: Modulation of PSM mRNA expression by cytokines and growth factors, Northern blot and laser densitometry. It counts as cell-based, human. To be noted: 24 to 72 hours, 0.1 ng/ml to 100 ng/ml; for upregulation of PSM expression compared to untreated LNCaP: androgen-depleted media; for downregulation of PSM expression: androgen depleted LNCaP cells. From the text: Total RNA was extracted from the cells and PSM mRNA expression was quantitated by Northern blot analysis and laser densitometry.

Experiment [5] concerns PC-3 cells. Nature of the experiment: Mitogenic response to transferrin, cell count. It counts as cell-based, human. To be noted: 1 μg per ml holotransferrin, counted at 5 days. As for the experimental part: 2×10^4 PC-3 or PSM-transfected PC-3 cells per well ere plated in RPMI medium supplemented with 10% fetal bovine serum and at 24 hrs. added 1 μg per ml. of holotransferrin to the cells. […] Cells were counted at 1 day to determine plating efficiency and at 5 days to determine the effect of the transferrin. Experiments were repeated to verify the results.

Experiment [6] concerns LNCaP cells. Nature of the experiment: Mitogenic response to transferrin, cell count. It counts as cell-based, human.
The mark [7] stands for this setting: 0.05-0.5 mM, semi-purified membrane-bound enzyme.

T1 sequence (Q04609 whole entry): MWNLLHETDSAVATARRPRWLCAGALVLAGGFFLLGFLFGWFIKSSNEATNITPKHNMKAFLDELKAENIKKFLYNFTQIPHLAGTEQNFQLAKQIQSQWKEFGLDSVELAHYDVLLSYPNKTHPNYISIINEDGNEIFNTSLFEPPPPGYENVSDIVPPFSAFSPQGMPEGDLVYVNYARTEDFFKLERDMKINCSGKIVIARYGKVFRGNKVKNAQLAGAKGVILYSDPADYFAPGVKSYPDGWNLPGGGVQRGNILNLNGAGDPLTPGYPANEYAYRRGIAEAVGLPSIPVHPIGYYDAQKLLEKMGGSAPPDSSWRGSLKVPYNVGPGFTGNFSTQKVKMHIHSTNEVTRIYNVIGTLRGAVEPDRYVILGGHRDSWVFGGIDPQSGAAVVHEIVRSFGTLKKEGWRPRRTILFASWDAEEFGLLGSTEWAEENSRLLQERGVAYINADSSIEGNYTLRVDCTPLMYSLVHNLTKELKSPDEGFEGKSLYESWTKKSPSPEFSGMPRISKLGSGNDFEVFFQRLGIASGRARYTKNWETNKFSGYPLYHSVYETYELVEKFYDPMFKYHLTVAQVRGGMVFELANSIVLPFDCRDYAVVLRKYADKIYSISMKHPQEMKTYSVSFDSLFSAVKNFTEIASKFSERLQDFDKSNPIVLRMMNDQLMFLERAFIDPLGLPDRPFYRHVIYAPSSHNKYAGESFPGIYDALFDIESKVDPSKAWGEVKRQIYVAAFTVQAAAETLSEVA
T2 sequence (Q04609 whole entry): as above

For the molecule `C[C@]12CCC(=O)C[C@@H]1CC[C@@H]1[C@@H]2CC[C@]2(C)[C@@H](O)CC[C@@H]12` [DHT, dihydrotesterone], in experiment [1], the “doses at which maximal downregulation of PSM mRNA was seen” value lay in the range of 2 to 20 nM, the “downregulation of PSM mRNA expression” value is 8-10 fold and the “effect on PSM mRNA expression (in words)” value is “significantly diminished PSM expression”. Regarding `CN(Cc1cnc2nc(N)nc(N)c2n1)c1ccc(C(=O)N[C@@H](CCC(=O)N[C@@H](CCC(=O)N[C@@H](CCC(=O)O)C(=O)O)C(=O)O)C(=O)O)cc1` [MTXGlu3, methotrexate triuglutamate], the “hydrolysis as substrate by the PSM enzyme (in words)” value in experiment [2] is “liberates progressively glutamates”. For `O=C(O)CC[C@H](NC(=O)[C@H](CC(=O)O)NC(=O)CP(=O)(O)O)C(=O)O` [PALglu, N-phosphonoacetyl-1-aspartate-glutamate], in experiment [3] (NAAG as a substrate), the “inhibition of neuropeptidase activity (in words)” value is “is an inhibitor of the enzyme activity”.

On to `O[C@@H](CS)[C@@H](O)CS` [dithfothreitol], for which the “inhibition of enzymatic activity (in words)” value in experiment [2] (≧0.2 mM, semi-purified membrane-bound enzyme) is given as “weakly inhibited”. `N[C@@H](CCS)C(=O)O` [homocysteine]: the “inhibition of enzymatic activity (in words)” value in experiment [2] (setting [7]) is listed as “not”.

For the molecule `O=C(O)c1cc[c]([Hg+])cc1.[OH-]` [p-hydroxymercuribenzoate], in experiment [2] (setting [7]), the “inhibition of enzymatic activity (in words)” value is reported as “not”. `CC(=O)[C@H]1CC[C@H]2[C@@H]3CCC4=CC(=O)CC[C@]4(C)[C@H]3CC[C@]12C` [progesterone]: the “effect on PSM mRNA expression (in words)” value is reported as “downregulated PSM expression” in experiment [1] and “significantly diminished PSM expression” in experiment [1] (listed as Progesterone).

On to `N[C@@H](CCC(=O)N[C@@H](CS)C(=O)NCC(=O)O)C(=O)O` [reduced glutathione], for which the “inhibition of enzymatic activity (in words)” value in experiment [2] is on record as “not”. With `C[C@]12CC[C@H]3[C@@H](CCC4=CC(=O)CC[C@@]43C)[C@@H]1CC[C@@H]2O` [testosterone], in experiment [1], the “downregulation of PSM mRNA expression” value is recorded as 3-4 fold and the “effect on PSM mRNA expression (in words)” value is “significantly diminished PSM expression”. As a reminder, the Ki is a dissociation constant, usually derived from enzyme kinetics or from competition with a known ligand. On to Penta-gammaglutamyl-folate, for which the Ki in experiment [3] (read-out: Ki, inhibition of the activity of the enzyme) was found to be 500 nM. The “hydrolysis as substrate by the PSM enzyme (in words)” value in experiment [2] is on record as “liberates progressively glutamates”. Consider “TGFα: growth factor, mitogenic for aggressive prostate cancer cells”, for which the “upregulation of PSM expression compared to untreated LNCaP” value in experiment [4] turned out to be 10 fold.

Turning to TNFα, in experiment [4], the “downregulation of PSM expression” value amounted to 8 fold. Regarding b-FGF: growth factor, the “upregulation of PSM expression compared to untreated LNCaP” value in experiment [4] turned out to be 10 fold. Consider “transferrin: holotransferrin added at 1 μg per ml to the cells”, for which, in experiment [5], the “average increase in cell growth over controls” value stood at 275%. For the same molecule, the “stimulation of cell growth” value in experiment [6] stood at 43%.

B1: TNFβ: cytokine (protein, UniProt P01374 35-205, looked up)
Lymphotoxin-alpha: LPGVGLTPSAAQTARQHPKMHLAHSTLKPAAHLIGDPSKQNSLLWRANTDRAFLQDGFSLSNNSLLVPTSGIYFVYSQVVFSGKAYSPKATSSPLYLAHEVQLFSSQYPFHVPLLSSQKMVYPGLQEPWLHSMYHGAAFQLTQGDQLSTHTDGIPHLVLSPSTVFFGAFAL
For B1, the “downregulation of PSM expression” value in experiment [4] was 8 fold.
